According to patent US12642794B2, “Dose regimens for use of LY3154207 in the treatment of dopaminergic CNS disorders” (Eli Lilly and Company, priority 2018, dated 2026):

What was measured:
participants with PD = experiment: HBEC motor examination subscore, MDS-UPDRS Part III; format: in vivo, human; conditions: 14-day treatment, 75 mg and 75 mg titration
Experimental: FIG. 4: Study HBEC, motor symptoms in PD patients in 14-day treatment with LY3154207. Participants with PD, treated with LY3154207, motor examination subscores compared to those treated with placebo, as measured by MDS-UPDRS Part III. Cohort 5 (LY 75 mg), Cohort 6 (LY 75 mg titration) (Participants with PD in Cohort 6 received 15 mg on Days 1-3 and 30 mg on Days 4-6), Cohort 5/6 (PBO).
Study outcomes included 24-hour ambulatory blood pressure monitoring (ABPM), treatment-emergent adverse events (TEAEs), and PK assessments in both healthy subjects and participants with PD, as well as Movement Disorder Society-United Parkinson's Disease Rating Scale (MDS-UPDRS) assessments to evaluate the impact of LY3154207 on motor function in participants with PD. The objective was to explore the safety, tolerability, and pharmacokinetics (PK) of multiple oral daily dosing of LY3154207 in healthy subjects (Part A) and in participants with PD (Part B).

healthy subjects = experiment: HBEA Part A single ascending dose study: adverse events, safety, tolerability; format: in vivo, human
Experimental: FIG. 1: Design of the study HBEA, a single ascending dose study of a D1 receptor positive allosteric modulator LY3154207 in healthy volunteers. aSafety review completed after each dose level prior to escalation. bDose escalation was terminated at 200 mg owing to cardiovascular effects. CSF=cerebrospinal fluid: LY=LY3154207: PBO=placebo: PK-pharmacokinetic.
HBEA is a single ascending dose study of a D1 receptor positive allosteric modulator LY3154207 in healthy volunteers. Study HBEA aims to determine the safety, tolerability, and peripheral and central pharmacokinetics (PK) of single ascending doses of LY3154207 in healthy subjects. Study HBEB aims to evaluate the effect of single-dose LY3154207 on sleep latency in sleep-deprived healthy male subjects as measured by a multiple sleep latency test (MSLT). HBEA was a Phase 1, 2-part, randomized, double-blind, placebo-controlled study in healthy males or females. Part A has a 3-period crossover design with 2 alternating, single-dose escalating cohorts, and subjects were randomized to LY3154207 (n=6) or placebo (n=3) in each cohort in each dosing period. Part B has a single-period, single-dose, 2-cohort design with cerebrospinal fluid (CSF) sampling, and subjects were randomized to LY3154207 (n=8) or placebo (n=4) in each cohort.
This is a phase 1, SAD, crossover design of LY3154207 in healthy subjects conducted in 2 alternating cohorts with dose escalation. Subjects are dosed at 25 mg, 75 mg, 100 mg, 150 mg and 200 mg or placebo. Safety parameters assessed include adverse events (AEs), safety laboratories, vital signs, ambulatory blood pressure monitoring (ABPM) and electrocardiogram (ECG). Subjects provide blood samples after dosing to measure plasma concentrations of LY3154207 for assessment of PK.

C[C@H]1c2cccc(CCC(C)(C)O)c2C[C@H](CO)N1C(=O)Cc1c(Cl)cccc1Cl [LY3154207]
75.0%: Treatment-related AEs, (%) (healthy subjects; single dose 100 mg (N = 8))
substantial increase in frequency: frequency of activating adverse events such as insomnia (healthy subjects; above the 75 mg dose)
[8] events: Treatment-related AEs, [events] (healthy subjects; single dose 75 mg (N = 6))
1 [1] events: Decreased appetite, treatment-related AE, [events] (healthy subjects; single dose 75 mg (N = 6)) | Headache, treatment-related AE, [events] (healthy subjects; single dose 75 mg (N = 6)) | Insomnia, treatment-related AE, [events] (healthy subjects; single dose 75 mg (N = 6)) | Decreased appetite, treatment-related AE, [events] (healthy subjects; single dose 100 mg (N = 8)) | Dizziness, treatment-related AE, [events] (healthy subjects; single dose 100 mg (N = 8)) | Energy increased, treatment-related AE, [events] (healthy subjects; single dose 100 mg (N = 8)) | Feeling hot, treatment-related AE, [events] (healthy subjects; single dose 100 mg (N = 8)) | Energy increased, treatment-related AE, [events] (healthy subjects; single dose 150 mg (N = 9)) | Feeling hot, treatment-related AE, [events] (healthy subjects; single dose 150 mg (N = 9)) | Anxiety, treatment-related AE, [events] (healthy subjects; single dose 200 mg (N = 6)) | Dizziness, treatment-related AE, [events] (healthy subjects; single dose 200 mg (N = 6)) | Energy increased, treatment-related AE, [events] (healthy subjects; single dose 200 mg (N = 6)) | Feeling hot, treatment-related AE, [events] (healthy subjects; single dose 200 mg (N = 6))
4 [4] n: Insomnia, treatment-related AE, n subjects (healthy subjects; single dose 100 mg (N = 8))
acceptable safety profile: safety profile (healthy subjects; dose range of 25-200 mg)
0 n: Anxiety, treatment-related AE, n subjects (healthy subjects; single dose 25 mg (N = 6)) | Decreased appetite, treatment-related AE, n subjects (healthy subjects; single dose 25 mg (N = 6)) | Dizziness, treatment-related AE, n subjects (healthy subjects; single dose 25 mg (N = 6)) | Dysgeusia, treatment-related AE, n subjects (healthy subjects; single dose 25 mg (N = 6)) | Energy increased, treatment-related AE, n subjects (healthy subjects; single dose 25 mg (N = 6)) | Feeling hot, treatment-related AE, n subjects (healthy subjects; single dose 25 mg (N = 6)) | Headache, treatment-related AE, n subjects (healthy subjects; single dose 25 mg (N = 6)) | Insomnia, treatment-related AE, n subjects (healthy subjects; single dose 25 mg (N = 6)) | Nausea, treatment-related AE, n subjects (healthy subjects; single dose 25 mg (N = 6)) | Anxiety, treatment-related AE, n subjects (healthy subjects; single dose 75 mg (N = 6)) | Dysgeusia, treatment-related AE, n subjects (healthy subjects; single dose 75 mg (N = 6)) | Energy increased, treatment-related AE, n subjects (healthy subjects; single dose 75 mg (N = 6)) | Feeling hot, treatment-related AE, n subjects (healthy subjects; single dose 75 mg (N = 6)) | Nausea, treatment-related AE, n subjects (healthy subjects; single dose 75 mg (N = 6)) | Headache, treatment-related AE, n subjects (healthy subjects; single dose 100 mg (N = 8)) | Nausea, treatment-related AE, n subjects (healthy subjects; single dose 100 mg (N = 8)) | Dysgeusia, treatment-related AE, n subjects (healthy subjects; single dose 200 mg (N = 6)) | Headache, treatment-related AE, n subjects (healthy subjects; single dose 200 mg (N = 6))
1 [1] n: Decreased appetite, treatment-related AE, n subjects (healthy subjects; single dose 75 mg (N = 6)) | Headache, treatment-related AE, n subjects (healthy subjects; single dose 75 mg (N = 6)) | Insomnia, treatment-related AE, n subjects (healthy subjects; single dose 75 mg (N = 6)) | Decreased appetite, treatment-related AE, n subjects (healthy subjects; single dose 100 mg (N = 8)) | Dizziness, treatment-related AE, n subjects (healthy subjects; single dose 100 mg (N = 8)) | Energy increased, treatment-related AE, n subjects (healthy subjects; single dose 100 mg (N = 8)) | Feeling hot, treatment-related AE, n subjects (healthy subjects; single dose 100 mg (N = 8)) | Energy increased, treatment-related AE, n subjects (healthy subjects; single dose 150 mg (N = 9)) | Feeling hot, treatment-related AE, n subjects (healthy subjects; single dose 150 mg (N = 9)) | Anxiety, treatment-related AE, n subjects (healthy subjects; single dose 200 mg (N = 6)) | Dizziness, treatment-related AE, n subjects (healthy subjects; single dose 200 mg (N = 6)) | Energy increased, treatment-related AE, n subjects (healthy subjects; single dose 200 mg (N = 6)) | Feeling hot, treatment-related AE, n subjects (healthy subjects; single dose 200 mg (N = 6))
No serious or severe AEs occurred: serious or severe AEs (healthy subjects; HBEA)
mostly mild: severity of treatment-related AEs (healthy subjects; HBEA Part A, occurred primarily at doses ≥100 mg)
69/111: treatment emergent AEs that occurred at doses ≥100 mg, of the total of 111 (healthy subjects; HBEA Part A, doses ≥100 mg)
[1] events: Treatment-related AEs, [events] (healthy subjects; single dose 25 mg (N = 6))
16.7%: Treatment-related AEs, (%) (healthy subjects; single dose 25 mg (N = 6))
[17] events: Treatment-related AEs, [events] (healthy subjects; single dose 100 mg (N = 8))
3 n: Anxiety, treatment-related AE, n subjects (healthy subjects; single dose 150 mg (N = 9))
3 [3] n: Decreased appetite, treatment-related AE, n subjects (healthy subjects; single dose 150 mg (N = 9)) | Insomnia, treatment-related AE, n subjects (healthy subjects; single dose 150 mg (N = 9)) | Insomnia, treatment-related AE, n subjects (healthy subjects; single dose 200 mg (N = 6))
acceptable safety and tolerability: safety and tolerability (healthy subjects; doses ≤75 mg)
well tolerated: tolerability (healthy subjects; HBEA, increase in AEs associated with central activation at doses ≥75 mg)
83.3%: Treatment-related AEs, (%) (healthy subjects; single dose 200 mg (N = 6))
66.7%: Treatment-related AEs, (%) (healthy subjects; single dose 75 mg (N = 6))
more consistent improvement: motor examination subscore, MDS-UPDRS Part III, compared to placebo (participants with PD)
4 events: Anxiety, treatment-related AE, [events] (healthy subjects; single dose 150 mg (N = 9))
2 [2] events: Dizziness, treatment-related AE, [events] (healthy subjects; single dose 75 mg (N = 6)) | Anxiety, treatment-related AE, [events] (healthy subjects; single dose 100 mg (N = 8)) | Dysgeusia, treatment-related AE, [events] (healthy subjects; single dose 100 mg (N = 8)) | Dizziness, treatment-related AE, [events] (healthy subjects; single dose 150 mg (N = 9)) | Dysgeusia, treatment-related AE, [events] (healthy subjects; single dose 150 mg (N = 9)) | Headache, treatment-related AE, [events] (healthy subjects; single dose 150 mg (N = 9)) | Nausea, treatment-related AE, [events] (healthy subjects; single dose 150 mg (N = 9)) | Decreased appetite, treatment-related AE, [events] (healthy subjects; single dose 200 mg (N = 6)) | Nausea, treatment-related AE, [events] (healthy subjects; single dose 200 mg (N = 6))
3 [3] events: Decreased appetite, treatment-related AE, [events] (healthy subjects; single dose 150 mg (N = 9)) | Insomnia, treatment-related AE, [events] (healthy subjects; single dose 150 mg (N = 9)) | Insomnia, treatment-related AE, [events] (healthy subjects; single dose 200 mg (N = 6))
[34] events: Treatment-related AEs, [events] (healthy subjects; single dose 150 mg (N = 9))
[18] events: Treatment-related AEs, [events] (healthy subjects; single dose 200 mg (N = 6))
4 [4] events: Insomnia, treatment-related AE, [events] (healthy subjects; single dose 100 mg (N = 8))
2 [2] n: Dizziness, treatment-related AE, n subjects (healthy subjects; single dose 75 mg (N = 6)) | Anxiety, treatment-related AE, n subjects (healthy subjects; single dose 100 mg (N = 8)) | Dysgeusia, treatment-related AE, n subjects (healthy subjects; single dose 100 mg (N = 8)) | Dizziness, treatment-related AE, n subjects (healthy subjects; single dose 150 mg (N = 9)) | Dysgeusia, treatment-related AE, n subjects (healthy subjects; single dose 150 mg (N = 9)) | Headache, treatment-related AE, n subjects (healthy subjects; single dose 150 mg (N = 9)) | Nausea, treatment-related AE, n subjects (healthy subjects; single dose 150 mg (N = 9)) | Decreased appetite, treatment-related AE, n subjects (healthy subjects; single dose 200 mg (N = 6)) | Nausea, treatment-related AE, n subjects (healthy subjects; single dose 200 mg (N = 6))
88.9%: Treatment-related AEs, (%) (healthy subjects; single dose 150 mg (N = 9))
